For this test, the system named is a variety of human and mouse cell lines and in a panel of 60 human cell lines. Nature of the test: Cytotoxicity under continuous drug exposure (growth inhibition). As to conditions: continuous drug exposure over approx. 5 cell doubling times; range over the cell lines. The class given is cell-based. On the procedure: The latter value compared with 2 µM for the 4-pyridyl-quinoline analogue, 0.76 µM for amsacrine, 0.1 µM for the amsacrine analogue 4'-(9-[4-[N-methylcarboxamido]-5-methyl]-acridinylamino)-methanesulphon-m-anisidide ("CI-921") and 81 µM for etoposide.

Usually IC50 stands for the concentration needed to halve the response being measured. Consider `CN(C)CCNC(=O)c1cccc2cc3ccccc3nc12` [DACA, N-[2-(dimethylamino)ethyl]acridine-4-carboxamide], for which the IC50 lay within 90 to 3400 nM.
